Legend:
[1] = system: Deroceras reticulatum (grey field slug); assay: Example 1: pot test, treated winter wheat seed with 5 adult slugs per pot, 14 days; type: in vivo
Experimental: (§1) Winter wheat (Kampa race; thousand grain weight of 51 grams) was used in an experiment to test the efficacy of the compositions of the present inventions in relation to known molluscicidal compounds. The seeds were disinfected for soil and germ moulds with 2 ml of Beret Gold (comprising 25 g/l of the fungicide fludioxonil) per kg of seed.
(§2) Sepiret® was added to all dry disinfections, and is the coating that was added to all agents of which the formulation was not suitable for coating.
The seeds were sown in earthenware pots with an internal diameter of 20 cm and a height of 18 cm, filled with 7 cm of potting soil (Trio BV, Weesp, The Netherlands) and with a top 2 cm of white quartz sand. A total of 40 seeds was placed in each pot, in a pattern of concentric circles on top of the quartz sand, the germ facing upwards. To each pot a total of 5 adult specimens of the test slug Deroceras reticulatum (grey field slug) were added. The pots were incubated at ±15° C. with a relative humidity of ±90% and light regime of ±12 hours light/12 hours dark, without artificial lighting. The pots were not irrigated overhead. In total, 4 parallel tests were performed for each test.
Following the addition of the slugs, the number of damaged seeds was counted after 2, 3, 7, 10 and 14 days. The number of plants present (germinated and not eaten or damaged by the slugs) was determined 3, 7, 10 and 14 days after the start of the test. […] The number of dead slugs was counted 2, 3, 7, 10 and 14 days after the start of the test (but not removed). Finally, on days 3, 7, 10 and 14 after the start of the test, the number fecal pellets was counted.
The data were statistically analysed by using F-tests (α=0.05) and pair-wise Student-tests.

[2] = system: Winter wheat (Kampa race) seeds; assay: Seed germination test of treated winter wheat seeds (rolled in paper); type: in vivo; settings: 3x50 seeds, 6 days at 22° C.
Experimental: as §1, §2
Table 2 provides an overview of the amounts of diluent water and Sepiret® used for treating the wheat seeds. Table 2 further provides the quality of the coating and the percentages of germinating seeds in a seed germination test. In this test, the percentage of germination of 3×50 seeds, rolled in paper, was determined after 6 days at 22° C. (continuously) and a 16 hours light regime.

[3] = 2 ml formulated per kg seed, 2 days after sowing
[4] = 2 ml formulated per kg seed, 3 days after sowing
[5] = 2 ml formulated per kg seed, 7 days after sowing
[6] = 2 ml formulated per kg seed, 10 days after sowing
[7] = 2 ml formulated per kg seed, 14 days after sowing
[8] = 4 ml formulated per kg seed, 2 days after sowing
[9] = 4 ml formulated per kg seed, 3 days after sowing
[10] = 4 ml formulated per kg seed, 7 days after sowing
[11] = 4 ml formulated per kg seed, 10 days after sowing
[12] = 4 ml formulated per kg seed, 14 days after sowing
[13] = 8 ml formulated per kg seed, 2 days after sowing
[14] = 8 ml formulated per kg seed, 3 days after sowing
[15] = 8 ml formulated per kg seed, 7 days after sowing
[16] = 8 ml formulated per kg seed, 10 days after sowing
[17] = 8 ml formulated per kg seed, 14 days after sowing
[18] = 23 ml formulated per kg seed, 2 days after sowing
[19] = 23 ml formulated per kg seed, 3 days after sowing
[20] = 23 ml formulated per kg seed, 7 days after sowing
[21] = 23 ml formulated per kg seed, 10 days after sowing
[22] = 23 ml formulated per kg seed, 14 days after sowing

Q: What does the source list for `CN1COCN(Cc2cnc(Cl)s2)/C1=N\[N+](=O)[O-]` [thiamethoxam]?
A: number of utilizable plants after 14 days ([1]; 2 ml formulated per kg seed): 0.3; percentage of damaged seeds after 14 days ([1]; 2 ml formulated per kg seed): 97%; Mean number of damaged seeds per pot [1, 3]: 5.0; Mean number of dead slugs per pot [1, 3]: 0; Mean number fecal pellets per pot [1, 4]: 42; Mean number of damaged seeds per pot [1, 4]: 18.0; Mean number of dead slugs per pot [1, 4]: 0; Mean number of plants present per pot [1, 4]: 7.3; Mean number fecal pellets per pot [1, 5]: 107; Mean number of damaged seeds per pot [1, 5]: 37.3; Mean number of dead slugs per pot [1, 5]: 0; Mean number of plants present per pot [1, 5]: 0.3; Mean number fecal pellets per pot [1, 6]: 158; Mean number of damaged seeds per pot [1, 6]: 39.0; Mean number of dead slugs per pot [1, 6]: 0; Mean number of plants present per pot [1, 6]: 0.3; Mean number fecal pellets per pot [1, 7]: 144; Mean number of damaged seeds per pot [1, 7]: 38.8; Mean number of dead slugs per pot [1, 7]: 0; Mean number of plants present per pot [1, 7]: 0.3; number of utilizable plants after 14 days ([1]; 4 ml formulated per kg seed): 0; percentage of damaged seeds after 14 days ([1]; 4 ml formulated per kg seed): 98%; Mean number of damaged seeds per pot [1, 8]: 1.8; Mean number of dead slugs per pot [1, 8]: 0; Mean number fecal pellets per pot [1, 9]: 30; Mean number of damaged seeds per pot [1, 9]: 15.5; Mean number of dead slugs per pot [1, 9]: 0; Mean number of plants present per pot [1, 9]: 6.0; Mean number fecal pellets per pot [1, 10]: 115; Mean number of damaged seeds per pot [1, 10]: 37.0; Mean number of dead slugs per pot [1, 10]: 0; Mean number of plants present per pot [1, 10]: 0.3; Mean number fecal pellets per pot [1, 11]: 126; Mean number of damaged seeds per pot [1, 11]: 36.5; Mean number of dead slugs per pot [1, 11]: 0.3; Mean number of plants present per pot [1, 11]: 0; Mean number fecal pellets per pot [1, 12]: 133; Mean number of damaged seeds per pot [1, 12]: 39.0; Mean number of dead slugs per pot [1, 12]: 0.5; Mean number of plants present per pot [1, 12]: 0; number of utilizable plants after 14 days ([1]; 8 ml formulated per kg seed): 3.8; percentage of damaged seeds after 14 days ([1]; 8 ml formulated per kg seed): 84%; Mean number of damaged seeds per pot [1, 13]: 2.0; Mean number of dead slugs per pot [1, 13]: 0; Mean number fecal pellets per pot [1, 14]: 33; Mean number of damaged seeds per pot [1, 14]: 10.3; Mean number of dead slugs per pot [1, 14]: 0; Mean number of plants present per pot [1, 14]: 5.5; Mean number fecal pellets per pot [1, 15]: 85; Mean number of damaged seeds per pot [1, 15]: 29.8; Mean number of dead slugs per pot [1, 15]: 0; Mean number of plants present per pot [1, 15]: 5.3; Mean number fecal pellets per pot [1, 16]: 108; Mean number of damaged seeds per pot [1, 16]: 30.8; Mean number of dead slugs per pot [1, 16]: 0; Mean number of plants present per pot [1, 16]: 5.5; Mean number fecal pellets per pot [1, 17]: 112; Mean number of damaged seeds per pot [1, 17]: 33.8; Mean number of dead slugs per pot [1, 17]: 0.3; Mean number of plants present per pot [1, 17]: 5.5; number of utilizable plants after 14 days ([1]; 23 ml formulated per kg seed): 2.5; percentage of damaged seeds after 14 days ([1]; 23 ml formulated per kg seed): 79%; Mean number of damaged seeds per pot [1, 18]: 0.5; Mean number of dead slugs per pot [1, 18]: 0; Mean number fecal pellets per pot [1, 19]: 20; Mean number of damaged seeds per pot [1, 19]: 8.5; Mean number of dead slugs per pot [1, 19]: 0.3; Mean number of plants present per pot [1, 19]: 6.8; Mean number fecal pellets per pot [1, 20]: 91; Mean number of damaged seeds per pot [1, 20]: 29.8; Mean number of dead slugs per pot [1, 20]: 0.3; Mean number of plants present per pot [1, 20]: 6.3; Mean number fecal pellets per pot [1, 21]: 122; Mean number of damaged seeds per pot [1, 21]: 30.0; Mean number of dead slugs per pot [1, 21]: 0.8; Mean number of plants present per pot [1, 21]: 7.0; Mean number fecal pellets per pot [1, 22]: 131; Mean number of damaged seeds per pot [1, 22]: 31.5; Mean number of dead slugs per pot [1, 22]: 0.8; Mean number of plants present per pot [1, 22]: 5.8; differences in the number of damaged seeds ([1]; Example 1, dosages tested): did not result in significant differences; protection / slug controlling effect (conclusion) ([1]; Example 1, winter wheat seed treatment, dosages tested): no sufficient protection to the plants; Percentage germinated ([2]; 2 ml formulated per kg seed): 88%; Percentage germinated ([2]; 4 ml formulated per kg seed): 78%; Percentage germinated ([2]; 8 ml formulated per kg seed): 61%; Percentage germinated ([2]; 23 ml formulated per kg seed): 73%

Source: US20070167492A1, “Molluscicidal agents” (priority 2003, published 2007)
